Source: PubChem BioAssay AID1259407 (Chemical Carcinogenesis Research Information System (CCRIS), 2018)
Activity calls are given as the source filed them. How the calls were made is not given here.

Test system: CCRIS mutagenicity, Ames/micronucleus/aberration tests
Experiment: CCRIS mutagenicity studies
[1] = Test System: AMES SALMONELLA TYPHIMURIUM, Strain/Indicator: TA98, Metabolic Activation: NONE, Method: PREINCUBATION
[2] = Test System: AMES SALMONELLA TYPHIMURIUM, Strain/Indicator: TA98, Metabolic Activation: NONE, Method: STANDARD PLATE
[3] = Test System: AMES SALMONELLA TYPHIMURIUM, Strain/Indicator: TA100, Metabolic Activation: NONE, Method: STANDARD PLATE
[4] = Test System: AMES SALMONELLA TYPHIMURIUM, Strain/Indicator: TA100, Metabolic Activation: S-9, Method: STANDARD PLATE
[5] = Test System: AMES SALMONELLA TYPHIMURIUM, Strain/Indicator: TA100, Metabolic Activation: NONE, Method: PREINCUBATION
[6] = Test System: AMES SALMONELLA TYPHIMURIUM, Strain/Indicator: TA1535, Metabolic Activation: NONE, Method: PREINCUBATION

## CCOP(=S)(OCC)Oc1nc(Cl)n(C(C)C)n1
[1]
  mutagenic call: active; positive
Test System: AMES SALMONELLA TYPHIMURIUM, Strain/Indicator: TA98, Metabolic Activation: RAT, LIVER, S-9, AROCLOR 1254, Method: PREINCUBATION
  mutagenic call: active; positive

## O=[N+]([O-])c1ccc2c(Cl)nsc2c1
[2]
  mutagenic call: active; positive

## Oc1ccc(Cc2ccc(O)cc2)cc1
End Point: In vitro micronucleus, Test System: HepG2 cells, Metabolic Activation: None
  mutagenic call: inactive; negative
Test System: Ames Salmonella typhimurium, Strain/Indicator: TA98, Metabolic Activation: None, Method: Preincubation
  mutagenic call: inactive; negative
Test System: Ames Salmonella typhimurium, Strain/Indicator: TA98, Metabolic Activation: Rat, Liver, S-9, Aroclor 1254, Method: Preincubation
  mutagenic call: inactive; negative
Test System: Ames Salmonella typhimurium, Strain/Indicator: TA100, Metabolic Activation: None, Method: Preincubation
  mutagenic call: inactive; negative
Test System: Ames Salmonella typhimurium, Strain/Indicator: TA100, Metabolic Activation: Rat, Liver, S-9, Aroclor 1254, Method: Preincubation
  mutagenic call: inactive; negative
Test System: Ames Salmonella typhimurium, Strain/Indicator: TA1535, Metabolic Activation: None, Method: Preincubation
  mutagenic call: inactive; negative
Test System: Ames Salmonella typhimurium, Strain/Indicator: TA1535, Metabolic Activation: Rat, Liver, S-9, Aroclor 1254, Method: Preincubation
  mutagenic call: inactive; negative
Test System: Ames Salmonella typhimurium, Strain/Indicator: TA1537, Metabolic Activation: None, Method: Preincubation
  mutagenic call: inactive; negative
Test System: Ames Salmonella typhimurium, Strain/Indicator: TA1537, Metabolic Activation: Rat, Liver, S-9, Aroclor 1254, Method: Preincubation
  mutagenic call: inactive; negative
Test System: E. coli, Strain/Indicator: W2 uvrA pKM101, Metabolic Activation: None, Method: Preincubation
  mutagenic call: inactive; negative
Test System: E. coli, Strain/Indicator: W2 uvrA pKM101, Metabolic Activation: Rat, Liver, S-9, Aroclor 1254, Method: Preincubation
  mutagenic call: inactive; negative

## [O-][N+](=Nc1ccc2c(c1)Cc1ccccc1-2)c1ccc2c(c1)Cc1ccccc1-2
[2]
  mutagenic call: inactive; negative
Test System: AMES SALMONELLA TYPHIMURIUM, Strain/Indicator: TA98, Metabolic Activation: RAT, LIVER, S-9, AROCLOR 1254, Method: STANDARD PLATE
  mutagenic call: inactive; negative

## CCC(=O)C(=O)CC
[3]
  mutagenic call: active; positive

## c1ccc2sncc2c1
[2]
  mutagenic call: inactive; negative
Test System: AMES SALMONELLA TYPHIMURIUM, Strain/Indicator: TA98, Metabolic Activation: S-9, Method: STANDARD PLATE
  mutagenic call: inactive; negative
[3]
  mutagenic call: inactive; negative
[4]
  mutagenic call: inactive; negative
Test System: AMES SALMONELLA TYPHIMURIUM, Strain/Indicator: TA1535, Metabolic Activation: NONE, Method: STANDARD PLATE
  mutagenic call: inactive; negative
Test System: AMES SALMONELLA TYPHIMURIUM, Strain/Indicator: TA1535, Metabolic Activation: S-9, Method: STANDARD PLATE
  mutagenic call: inactive; negative
Test System: AMES SALMONELLA TYPHIMURIUM, Strain/Indicator: TA1537, Metabolic Activation: NONE, Method: STANDARD PLATE
  mutagenic call: inactive; negative
Test System: AMES SALMONELLA TYPHIMURIUM, Strain/Indicator: TA1537, Metabolic Activation: S-9, Method: STANDARD PLATE
  mutagenic call: inactive; negative

## CCCCN(CC(O)c1ccc([O-])c([N+]#N)c1)N=O (stereo not given)
[1]
  mutagenic call: active; positive
Test System: AMES SALMONELLA TYPHIMURIUM, Strain/Indicator: TA98, Method: PREINCUBATION
  mutagenic call: active; positive
[5]
  mutagenic call: active; positive
Test System: AMES SALMONELLA TYPHIMURIUM, Strain/Indicator: TA100, Method: PREINCUBATION
  mutagenic call: active; positive

## CC(=O)O[C@H]1[C@H]2O[C@H]2C2=CC(=O)[C@]3(C[C@]2(C)[C@H]1C)O[C@]3(C)C=O
[1]
  mutagenic call: active; positive
Test System: AMES SALMONELLA TYPHIMURIUM, Strain/Indicator: TA98, Metabolic Activation: RAT, LIVER, S-9, PHENOBARBITAL AND BETA-NAPHTHOFLAVONE, Method: PREINCUBATION
  mutagenic call: inactive; negative
[5]
  mutagenic call: inactive; negative
Test System: AMES SALMONELLA TYPHIMURIUM, Strain/Indicator: TA100, Metabolic Activation: RAT, LIVER, MICROSOMES, PHENOBARBITAL, Method: STANDARD PLATE
  mutagenic call: active; positive
Test System: AMES SALMONELLA TYPHIMURIUM, Strain/Indicator: TA100, Metabolic Activation: RAT, LIVER, S-9, PHENOBARBITAL AND BETA-NAPHTHOFLAVONE, Method: PREINCUBATION
  mutagenic call: inactive; negative
Test System: AMES SALMONELLA TYPHIMURIUM, Strain/Indicator: TA100, Metabolic Activation: RAT, LIVER, S-9, PHENOBARBITAL, Method: PREINCUBATION
  mutagenic call: inactive; negative
[6]
  mutagenic call: inactive; negative
Test System: AMES SALMONELLA TYPHIMURIUM, Strain/Indicator: TA1535, Metabolic Activation: RAT, LIVER, S-9, PHENOBARBITAL AND BETA-NAPHTHOFLAVONE, Method: PREINCUBATION
  mutagenic call: inactive; negative
Test System: AMES SALMONELLA TYPHIMURIUM, Strain/Indicator: TA1537, Metabolic Activation: NONE, Method: PREINCUBATION
  mutagenic call: inactive; negative
Test System: AMES SALMONELLA TYPHIMURIUM, Strain/Indicator: TA1537, Metabolic Activation: RAT, LIVER, S-9, PHENOBARBITAL AND BETA-NAPHTHOFLAVONE, Method: PREINCUBATION
  mutagenic call: inactive; negative
Test System: AMES SALMONELLA TYPHIMURIUM, Strain/Indicator: TA1538, Metabolic Activation: NONE, Method: PREINCUBATION
  mutagenic call: inactive; negative
Test System: AMES SALMONELLA TYPHIMURIUM, Strain/Indicator: TA1538, Metabolic Activation: RAT, LIVER, S-9, PHENOBARBITAL AND BETA-NAPHTHOFLAVONE, Method: PREINCUBATION
  mutagenic call: inactive; negative

## c1ccc2sc(SSc3nc4ccccc4s3)nc2c1
Test System: AMES SALMONELLA TYPHIMURIUM, Strain/Indicator: TA97, Metabolic Activation: HAMSTER, LIVER, S-9, AROCLOR 1254 (10%), Method: PREINCUBATION
  mutagenic call: inactive; negative
Test System: AMES SALMONELLA TYPHIMURIUM, Strain/Indicator: TA97, Metabolic Activation: NONE, Method: PREINCUBATION
  mutagenic call: active; positive
Test System: AMES SALMONELLA TYPHIMURIUM, Strain/Indicator: TA97, Metabolic Activation: RAT, LIVER, S-9, AROCLOR 1254 (10%), Method: PREINCUBATION
  mutagenic call: inactive; negative
Test System: AMES SALMONELLA TYPHIMURIUM, Strain/Indicator: TA98, Metabolic Activation: HAMSTER, LIVER, S-9, AROCLOR 1254 (10 OR 30%), Method: PREINCUBATION
  mutagenic call: inactive; negative
Test System: AMES SALMONELLA TYPHIMURIUM, Strain/Indicator: TA98, Metabolic Activation: RAT, LIVER, S-9, AROCLOR 1254 (10 OR 30%), Method: PREINCUBATION
  mutagenic call: inactive; negative
Test System: AMES SALMONELLA TYPHIMURIUM, Strain/Indicator: TA100, Metabolic Activation: HAMSTER, LIVER, S-9, AROCLOR 1254 (10 OR 30%), Method: PREINCUBATION
  mutagenic call: inactive; negative
[5]
  mutagenic call: inactive; negative
Test System: AMES SALMONELLA TYPHIMURIUM, Strain/Indicator: TA100, Metabolic Activation: RAT, LIVER, S-9, AROCLOR 1254 (10 OR 30%), Method: PREINCUBATION
  mutagenic call: active; positive
Test System: AMES SALMONELLA TYPHIMURIUM, Strain/Indicator: TA1535, Metabolic Activation: HAMSTER, LIVER, S-9, AROCLOR 1254 (10%), Method: PREINCUBATION
  mutagenic call: inactive; negative
[6]
  mutagenic call: inactive; negative
Test System: AMES SALMONELLA TYPHIMURIUM, Strain/Indicator: TA1535, Metabolic Activation: RAT, LIVER, S-9, AROCLOR 1254 (10%), Method: PREINCUBATION
  mutagenic call: inactive; negative

## NC[N+](=O)[O-]
Test System: AMES SALMONELLA TYPHIMURIUM, Strain/Indicator: TA100, Metabolic Activation: RAT, LIVER, S-9, AROCLOR 1254, Method: PREINCUBATION
  mutagenic call: inactive; negative
Test System: AMES SALMONELLA TYPHIMURIUM, Strain/Indicator: TA1535, Metabolic Activation: RAT, LIVER, S-9, AROCLOR 1254, Method: PREINCUBATION
  mutagenic call: inactive; negative

## c1cc2sncc2cc1OCC1CO1 (stereo not given)
[4]
  mutagenic call: active; positive
